Experiments:
Assay type in all cases: cell-based
[1] = tested on: MiaPaca-2 (expressing KRAS G12C mutant); experiment: Proliferation Assay (Cell Viability Assay); settings: Homo sapiens, MIA PaCa-2; read-out: Proliferation in MiaPaca-2: IC50
How it was run: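 MiaPaca-2 cells (KRAS G12C) were grown in DMEM-high glucose with 10% FBS, seeded at 2000–5000 cells/well and cultured overnight. Compounds were added at 10 μM final, or as serial dilutions for IC50, in 0.3% DMSO/10% FBS for 2–4 days at 37 °C, 5% CO2. Viability was measured with CellTiter 96 Aqueous One and % inhibition calculated.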

IL6 = experiment: IL-6 Quantification Assay (ELISA), LPS-stimulated RAW 264.7; set-up: inhibition: dose or concentration left out as unconfirmed; settings: Mus musculus, RAW264.7; read-out: IL-6: % inh.
TNF-alpha = TNF-alpha Quantification Assay (ELISA), LPS-stimulated RAW 264.7; settings: Mus musculus, RAW264.7; at 10 μM; read-out: TNFα: % inh.

Compound | IC50 [1] [µM] | inhibition (IL6) [%] | inhibition at 10 µM (TNF-alpha) [%]
CO[C@H]1CC[C@H](Nc2nc(-c3nccn3C)nn3cc(-c4ccn(C)n4)c(C(=O)NCC(F)(F)F)c23)C1 (racemic) [Compound 181, 4-(((1S,3S)-3-Methoxycyclopentyl)amino)-2-(1-methyl-1H-imidazol-2-yl)-6-(1-methyl-1H-pyrazol-3-yl)-N-(2,2,2-trifluoroethyl)pyrrolo[2,1-f][1,2,4]triazine-5-carboxamide] | > 1 | 50 to 74 | 1 to 24
COCCNC(=O)c1c(-c2ccn(C)n2)cn2nc(-c3nccn3C)nc(N[C@H]3CC[C@H](OC)C3)c12 (racemic) [Compound 183, rac 4-(((1S,3S)-3-Methoxycyclo-pentyl)amino)-N-(2-methoxyethyl)-2-(1-methyl-1H-imidazol-2-yl)-6-(1-methyl-1H-pyrazol-3-yl)pyrrolo[2,1-f][1,2,4]triazine-5-carboxamide] | > 1 | 25 to 49 | 25 to 49
COCCCNC(=O)c1c(-c2ccn(C)n2)cn2nc(-c3nccn3C)nc(N[C@H]3CC[C@H](OC)C3)c12 (racemic) [Compound 184, rac 4-(((1S,3S)-3-methoxycyclo-pentyl)amino)-N-(3-methoxypropyl)-2-(1-methyl-1H-imidazol-2-yl)-6-(1-methyl-1H-pyrazol-3-yl)pyrrolo[2,1-f][1,2,4]triazine-5-carboxamide] | > 1 | 25 to 49 | 25 to 49
CO[C@H]1CC[C@H](Nc2nc(-c3nccn3C)nn3cc(-c4ccn(C)n4)c(C(=O)NCCN4CCOCC4)c23)C1 (racemic) [Compound 185, rac 4-(((1S,3S)-3-methoxycyclo-pentyl)amino)-2-(1-methyl-1H-imidazol-2-yl)-6-(1-methyl-1H-pyrazol-3-yl)-N-(2-morpholino-ethyl)pyrrolo[2,1-f][1,2,4]triazine-5-carboxamide] | > 1 | 25 to 49 | 25 to 49
CO[C@H]1C[C@H](Nc2nc(-c3nccn3C)nn3cc(-c4cccnc4)c(-c4cccnc4)c23)C1 [Compound 171, N-((1r,3r)-3-Methoxycyclobutyl)-2-(1-methyl-1H-imidazol-2-yl)-5,6-di(pyridin-3-yl)pyrrolo[2,1-f][1,2,4]triazin-4-amine] | > 1 | 0 | 0
Cc1c(-c2ccn(C)n2)cn2nc(-c3nccn3C)nc(O)c12 [Compound 172, 5-Methyl-2-(1-methyl-1H-imidazol-2-yl)-6-(1-methyl-1H-pyrazol-3-yl)pyrrolo[2,1-f][1,2,4]triazin-4-ol] | > 1 | 1 to 24 | 0

Now from value to compound, other results behind:

IC50 [1] [µM] | Compound | inhibition (IL6) [%] | inhibition at 10 µM (TNF-alpha) [%]
> 1 | CO[C@H]1CC[C@H](Nc2nc(-c3nccn3C)nn3cc(-c4ccn(C)n4)c(C(=O)NC4CC4)c23)C1 (racemic) [Compound 182, rac N-Cyclopropyl-4-(((1S,3S)-3-methoxycyclo-pentyl)amino)-2-(1-methyl-1H-imidazol-2-yl)-6-(1-methyl-1H-pyrazol-3-yl)pyrrolo[2,1-f][1,2,4]triazine-5-carboxamide] | 25 to 49 | 1 to 24
< 0.15 | COc1cc(Nc2nc(-c3nccn3C)nn3cc(-c4cccnc4)c(-c4cccnc4)c23)ncn1 [Compound 170, N-(6-Methoxypyrimidin-4-yl)-2-(1-methyl-1H-imidazol-2-yl)-5,6-di(pyridin-3-yl)pyrrolo[2,1-f][1,2,4]triazin-4-amine] | 50 to 74 | 0
0.51 to 1 | CCNC(=O)c1c(-c2ccn(C)n2)cn2nc(-c3nccn3C)nc(Nc3cc(OC)ccn3)c12 [Compound 173, N-Ethyl-4-((4-methoxypyridin-2-yl)amino)-2-(1-methyl-1H-imidazol-2-yl)-6-(1-methyl-1H-pyrazol-3-yl)pyrrolo[2,1-f][1,2,4]triazine-5-carboxamide] | 75 to 100 | 0

Reference: patent US12459951B2, “Compounds that interact with RAS superfamily proteins for treatment of cancers, inflammatory diseases, rasopathies, and fibrotic disease” (SHY Therapeutics, LLC, priority 2022, dated 2025)
